Test results reported in ChEMBL document CHEMBL4699634, “Series of Novel and Highly Potent Cyclic Peptide PCSK9 Inhibitors Derived from an mRNA Display Screen and Optimized via Structure-Based Design” (J Med Chem, 2020).

How the values were obtained:
[1] = Volume of distribution at steady state in Wistar Han rat at 1 mg/kg, iv by LC-MS/MS analysis; format: ADME, organism-based; conditions: in vivo, read-out: Vdss
[2] = molecular target: Chymotrypsin-like elastase family member 1 (Sus scrofa, UniProt P00772); test: Enzymatic stability assessed as porcine type 4 pancreatic elastase-mediated compound hydrolysis by measuring parent compound remaining at 100 uM incubated for 1 hr by LC-MS/MS analysis; format: ADME; conditions: pig, read-out: Stabilty
Sequence of Chymotrypsin-like elastase family member 1 (P00772 whole entry): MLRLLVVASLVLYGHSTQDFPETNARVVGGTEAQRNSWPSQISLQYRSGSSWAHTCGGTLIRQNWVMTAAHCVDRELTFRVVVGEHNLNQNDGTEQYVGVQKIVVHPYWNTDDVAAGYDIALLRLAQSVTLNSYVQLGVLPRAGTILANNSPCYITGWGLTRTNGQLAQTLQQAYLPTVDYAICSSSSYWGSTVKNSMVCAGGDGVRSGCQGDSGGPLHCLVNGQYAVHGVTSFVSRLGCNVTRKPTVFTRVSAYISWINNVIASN

[3] = Enzymatic stability assessed as porcine pepsin-mediated compound hydrolysis by measuring parent compound remaining at 100 uM incubated for 1 hr by LC-MS/MS analysis; format: ADME, Sus scrofa; conditions: pig, read-out: Stabilty
[4] = Half life in cynomolgus monkey whole blood at 100 uM by LC-MS/MS analysis; format: ADME, tissue-based, Macaca fascicularis
[5] = Clearance in cynomolgus monkey at 0.5 mg/kg, iv by LC-MS/MS analysis; format: ADME, organism-based, Macaca fascicularis; conditions: in vivo
[6] = molecular target: Proprotein convertase subtilisin/kexin type 9 (Homo sapiens, UniProt Q8NBP7); test: Inhibition of AlexaFluor647-tagged cyclic peptide binding to avi-tagged-biotinylated human PCSK9 measured after 2 hrs by Lance Streptavidin Europium based FRET assay
Sequence of Proprotein convertase subtilisin/kexin type 9 (Q8NBP7 31-152 limits assumed): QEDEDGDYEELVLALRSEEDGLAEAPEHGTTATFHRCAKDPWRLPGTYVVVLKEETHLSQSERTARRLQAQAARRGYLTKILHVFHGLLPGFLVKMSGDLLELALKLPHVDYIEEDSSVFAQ
Sequence of Proprotein convertase subtilisin/kexin type 9 (Q8NBP7 153-692 limits assumed): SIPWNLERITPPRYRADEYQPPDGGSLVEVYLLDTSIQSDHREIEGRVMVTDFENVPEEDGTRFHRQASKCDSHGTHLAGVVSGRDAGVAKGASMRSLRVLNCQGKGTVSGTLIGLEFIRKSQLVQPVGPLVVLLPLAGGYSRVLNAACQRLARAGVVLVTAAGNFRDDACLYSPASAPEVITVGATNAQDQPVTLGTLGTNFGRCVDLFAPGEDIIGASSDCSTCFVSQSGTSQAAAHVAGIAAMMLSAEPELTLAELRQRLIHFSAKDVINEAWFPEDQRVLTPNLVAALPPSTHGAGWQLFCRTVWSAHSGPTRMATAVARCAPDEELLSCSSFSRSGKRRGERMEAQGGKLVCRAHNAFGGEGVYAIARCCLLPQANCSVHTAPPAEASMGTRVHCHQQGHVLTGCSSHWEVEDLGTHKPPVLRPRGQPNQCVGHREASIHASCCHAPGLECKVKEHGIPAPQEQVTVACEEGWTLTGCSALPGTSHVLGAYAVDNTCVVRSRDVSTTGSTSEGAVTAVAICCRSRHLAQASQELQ

[7] = AUC (0 to infinity) in Wistar Han rat at 1 mg/kg, iv by LC-MS/MS analysis; format: ADME, organism-based; parameters: route intravenous, time infinity, dose 1 mg/kg; conditions: in vivo
[8] = AUC (0 to infinity) in cynomolgus monkey at 0.5 mg/kg, iv by LC-MS/MS analysis; format: ADME, organism-based, Macaca fascicularis; parameters: time infinity, route intravenous, dose 0.5 mg/kg; conditions: in vivo
[9] = Enzymatic stability assessed as bovine pancreatic trypsin-mediated compound hydrolysis by measuring parent compound remaining at 100 uM incubated for 1 hr by LC-MS/MS analysis; format: ADME, Bos taurus; conditions: cattle, read-out: Stabilty
[10] = AUC (0 to X) in Wistar Han rat at 1 mg/kg, iv by LC-MS/MS analysis; format: ADME, organism-based; parameters: dose 1 mg/kg; conditions: in vivo
[11] = Protein binding in Wistar Han rat plasma; format: ADME, cell-free; conditions: read-out: PPB (converted)
[12] = Half life in Wistar Han rat at 1 mg/kg, iv by LC-MS/MS analysis; format: ADME, organism-based; conditions: in vivo
[13] = Half life in cynomolgus monkey at 0.5 mg/kg, iv by LC-MS/MS analysis; format: ADME, organism-based, Macaca fascicularis; conditions: in vivo
Chymotrypsinogen A = Chymotrypsinogen A (Bos taurus, UniProt P00766); test: Enzymatic stability assessed as bovine pancreatic alpha-chymotrypsin-mediated compound hydrolysis by measuring parent compound remaining at 100 uM incubated for 1 hr by LC-MS/MS analysis; format: ADME; conditions: cattle, read-out: Stabilty
[14] = Volume of distribution at steady state in cynomolgus monkey at 0.5 mg/kg, iv by LC-MS/MS analysis; format: ADME, organism-based, Macaca fascicularis; conditions: in vivo, read-out: Vdss
[15] = AUC (0 to X) in cynomolgus monkey at 0.5 mg/kg, iv by LC-MS/MS analysis; format: ADME, organism-based, Macaca fascicularis; parameters: dose 0.5 mg/kg; conditions: in vivo
[16] = Protein binding in cynomolgus monkey plasma; format: ADME, cell-free, Macaca fascicularis; conditions: read-out: PPB (converted)

**Q.** What does the source list for `COc1ccc(C[C@@H]2NC(=O)[C@H]([C@@H](C)O)NC(=O)[C@@H]3CCCN3C(=O)[C@@H]3Cc4cn(c5ccc(F)cc45)Cc4cn(nn4)-c4cc(cc(c4)CSCCC(=O)N[C@@H](C)C(=O)N[C@H](C)C(=O)N[C@@H](Cc4c[nH]c5ccc(F)cc45)C(=O)N3)CSCCNC(=O)[C@]3(C)CCCN3C2=O)cc1`?
**A.** Vd [1]: 0.48 L/kg; remaining at 1 h, 100 µM [2]: 96.6%; remaining at 1 h, 100 µM [3]: 98.9%; half-life at 100 µM [4]: > 6 h; clearance [5]: 20.1 mL/min/kg; Ki [6]: 1.36 nM; AUC [7]: 0.0233 µM·h; AUC(0-inf) [8]: 0.306 µM·h; remaining at 1 h, 100 µM [9]: 99.2%; AUC [10]: 0.0194 µM·h; fraction unbound [11]: 0.003; half-life [12]: 3.6 min; half-life [13]: 2.84 h; remaining at 1 h, 100 µM (Chymotrypsinogen A): 91.8%; Vd [14]: 1.06 L/kg; AUC [15]: 0.304 µM·h; fraction unbound [16]: 0.025
